Data taken from paper PMC7878295 (Gastroenterology, 2020).
Where two headings read alike, the source gives them in different places.

Experiments:
lipotoxic HLO = experiment: Viability in lipotoxic; assay type: cell-based
[1] = system: human liver organoid (HLO); details: 72 h
CYP1A2 = CYP1A2 induction in HLO
BSEP = experiment: CLF bile acid transport in HLO; assay type: cell-based, human; details: normal HLO, viable dosing (100 μM, 200 μM)
[2] = system: human liver organoid (HLO)
[3] = system: human liver organoid (HLO); experiment: Mitochondrial membrane potential; details: treatment for 24h, multiple doses
[4] = Organoid viability after treatment with training compounds; details: human, human liver organoids (HLO)
[5] = system: CYP2C9*2 carrier and non-carrier HLO; assay type: cell-based, human

## CCc1ccc(CCOc2ccc(CC3SC(=O)NC3=O)cc2)nc1 (stereo not drawn) [Pioglitazone]
Lipotoxic HLO; 200 μM, 24h, HLO with/without lipotoxic condition
  effect on viability: did not affect viability

## COc1ccc2c(c1)c(CC(=O)O)c(C)n2C(=O)c1ccc(Cl)cc1 [Indomethacin]
[1]
  concentration at which induced toxicity was detected in cytotoxicity assay: 10 µM

## COc1ccc2[nH]c([S+]([O-])Cc3ncc(C)c(OC)c3C)nc2c1 (stereo not drawn) [Omeprazol, Omeprazole]
CYP1A2
  CYP1A2 induction response: major CYP induction responses in HLO

## Cc1cc2c(cc1CC(=O)c1sccc1S(=O)(=O)Nc1onc(C)c1Cl)OCO2 [sitaxentan]
BSEP
  CLF transport: inhibited CLF transport

## Cc1c(C)c2c(c(C)c1O)CCC(C)(COc1ccc(CC3SC(=O)NC3=O)cc1)O2 (stereo not drawn) [Troglitazone]
[2]
  cell viability at 72 hours relative to TOL, DICLO and BOS: significantly lowered cell viability

## CCN(CC)C(=O)/C(C#N)=C/c1cc(O)c(O)c([N+](=O)[O-])c1 [Entacapone]
[3]
  increase in MMP: increases in MMP were not clearly observed
[4]
  viability at 24 h, 130 µM: 85%
  viability at 72 h, 130 µM: 64%

## CC(=O)N[C@@H](CS)C(=O)O [NAC, N-acetylcysteine]
Lipotoxic HLO; lipotoxic HLO treated with Troglitazone
  rescue of cell viability: cell viability was significantly improved

## COc1ccccc1Oc1c(NS(=O)(=O)c2ccc(C(C)(C)C)cc2)nc(-c2ncccn2)nc1OCCO [Bosentan]
[5]; CC genotype (CYP2C9 enzyme activity normal) HLO
  Positive rate of impaired CLF excretion: 17.1 % of positive
[5]; CT genotype (CYP2C9*2, activity intermediate) HLO
  Positive rate of impaired CLF excretion: 70.8 % of positive

## CC(c1cc2ccccc2s1)N(O)C(N)=O (stereo not drawn) [Zileuton]
[1]
  concentration at which induced toxicity was detected in cytotoxicity assay: 100 µM
